We go through seven compounds from US8715635B2, “Frictionless molecular rotary motors” (Technion Research & Development Foundation Limited, priority 2007, dated 2014).

A short description of data set [1]: Isothermal titration calorimetry (ITC) of CB[6] host with dicationic guest molecules. The class given is binding. The following applies: in water at 30° C. The procedure:
Isothermal titration calorimetry (ITC) was previously employed to study complexation parameters of Compound 1 [63]. Measurement of the host-guest binding thermodynamic profile using ITC provides in a single experiment not only the binding constants (Kb) and binding stoichiometry (n), but also the differences of enthalpy (ΔH) and entropy (ΔS) of binding.
The experiment was carried out by loading the ITC sample cell with saturated aqueous solution of Compound 1 (1.4 ml) and titrating it with a neutral aqueous solution of the dicationic dihydrochloride salts of various exemplary guest molecules at concentrations that ranged from 3.3 mM to 5.0 mM. The heat generated during each injection was recorded (FIG. 1) and the thermodynamic parameters were acquired by non-linear least squares fit of the calorimetric titration data to a one-site binding model (Table 2).
A saturated solution of Compound 1 (0.4 mM) in water at pH=7 was prepared by stirring an excess of finely powdered Compound 1 overnight at 30° C. and filtering through a 100-μm micro-filter. Solutions of the guest molecules at concentrations of 3.3-6 mM, were prepared and filtered through a 100-μm micro-filter as well. Titration calorimetry measurements were performed with a VP-ITC calorimeter (Microcal, Northampton, Mass.) as previously described. Repeat determinations indicated errors of 3-10% in n, ΔH, degree, and K values over the most favorable concentration range. A solution of Compound 1 was titrated by 29 injections of 6 μL of guest molecule solutions at 30° C. each, and the titration data were analyzed using Origin2000 software.
Background: Isothermal titration calorimetry measures the heat released or taken up as one component is titrated into another.

For data set [2] the following is noted: cited from earlier work.
A short description of the next data set: Solubility. The class given is physicochemical. The following applies: water at pH=7, 30° C.
For data set [3] the following is noted: cited from earlier work. This is another data set of the same source.

Converted amounts (≈) assume the structure as drawn. Like-named read-outs stand apart in the source and are kept apart here.

`NCCCCCCN` [Compound 3′, 1,6-diaminohexane]: in data set [1], the ΔH of binding is -13.760 ± 0.090 kcal/mol and the ΔS of binding was -20.4 cal/(mol·K). Besides, the “ΔS of binding (entropy term, text)” value in data set [1] (text values in J) is reported as −85.77 J/mol.° K. Also, the “ΔH binding enthalpy” value in data set [1] (text values in KJ) is -13.76 kcal/mol.
As for `Cl.Cl.NCC#CC#CCN` [Compound 4′, Hexa-2,4-diyne-1,6-diammonium dihydrochloride], in data set [1], the ΔH of binding is -0.696 ± 0.005 kcal/mol and the ΔS of binding was found to be 23.51.
As for `O=C1N2CN3C(=O)N4CN5C(=O)N6CN7C(=O)N8CN9C(=O)N%10CN%11C(=O)N%12CN1C1C2N2CN%13C(=O)N(CN%14C(=O)N(CN%15C(=O)N(CN%16C(=O)N(CN%17C(=O)N(CN1C2=O)C%12C%11%17)C%10C9%16)C8C7%15)C6C5%14)C4C3%13` (stereo not drawn) [Compound 1, Cucurbit[6]uril], in data set [2], the “pKa value of the conjugate acid” value is 3.02. Also, the “concentration of saturated solution in water” value in “Solubility” was 400 µM. In addition, the “solubility in aqueous acid” value in data set [3] (HCO2H/H2O (1:1)) is 61 mM (≈ 60.8 mg/mL).
Turning to `O=C1N2CN3C(=O)N4CN5C(=O)N6CN7C(=O)N8CN9C(=O)N%10CN1C1C2N2CN%11C(=O)N(CN%12C(=O)N(CN%13C(=O)N(CN%14C(=O)N(CN1C2=O)C%10C9%14)C8C7%13)C6C5%12)C4C3%11` (stereo not drawn) [CB[5]], in data set [3] (3M HCl), the “solubility in aqueous acid” value is listed as “about 60 mM”.
For the compound `Cl.Cl.NCC#CC#CCN1CCCC1` [Compound 5′, N-6-pyrrolidinium-hexa-2,4-diynyl ammonium dichloride], in data set [1], the ΔH of binding was -4.452 ± 0.057 kcal/mol and the ΔS of binding was 9.29 cal/(mol·K).
Take `O=C1N2CN3C(=O)N4CN5C(=O)N6CN7C(=O)N8CN9C(=O)N%10CN%11C(=O)N%12CN%13C(=O)N%14CN1C1C2N2CN%15C(=O)N(CN%16C(=O)N(CN%17C(=O)N(CN%18C(=O)N(CN%19C(=O)N(CN%20C(=O)N(CN1C2=O)C%14C%13%20)C%12C%11%19)C%10C9%18)C8C7%17)C6C5%16)C4C3%15` (stereo not drawn) [CB[7]]: the “solubility in aqueous acid” value in data set [3] (3M HCl) is “about 700 mM”.
Regarding `C(C#CCN1CCCC1)#CCN1CCCC1.Cl.Cl` [Compound 6′, 1,6-Dipyrrolidinium-2,4-hexadiyne dichloride], in data set [1], the ΔH of binding is -3.718 ± 0.044 kcal/mol and the ΔS of binding was 12.8 cal/(mol·K).
